For assay [1], the target named is T1, EPHA2 (Homo sapiens, UniProt P29317).
T1 construct: made in house; host or cells: cell-free system (rabbit reticulocyte lysate)
Briefly: KinaseSeeker competition binding assay. As for the experimental part:
(§1) Compound Reno647 was profiled against the following panel of kinases at 2 μM using the KinaseSeeker™ assay: ABL1, AKT1, AKT2, AKT3, ALK, AURKA, AXL, BRAF, BTK, CDK2, CDK5, CDK7, CDK8, CSF1R, DDR1, EGFR del L747-P753 InsS, EGFR (L861Q), EGFR (G719S), EGFR, EGFR (L858R), EPHA2, EPHB2, FGFR3, FLT1/VEGFR1, FLT2/FGFR1, FLT3, FLT4/VEGFR3, GSK-3a, HER2, IGF1R, INSR, KIT, LIMK1, MET, MLK2/MAP3K10, RPS6KA5/MSK1, MUSK, p38a/MAPK12, PDGFRA, PDGFRB, PDK1, RET, RIPK2, RPS6KA1/RSK1, SRC, TEC, TESK1, TRKB, VEGFR2, and YES 1.
(§2) KinaseSeeker is a homogeneous competition binding assay where the displacement of an active site dependent probe by an inhibitor is measured by a change in luminescence signal (see FIG. 7). Luminescence readout translates into a highly sensitive and robust assay with low background and minimal interference from test compounds.
(§3) (Jester, Cox et al. 2010; Jester, Gaj et al. 2012): 10 mM stock of compound Reno647 was diluted in DMSO to a concentration of 50 μM. Prior to initiating a profiling campaign, the compound was evaluated for false positive against split-luciferase. The compound was then screened in duplicate against each of the kinases. For kinase assays, each Cfluc-Kinase was translated along with Fos-Nfluc using a cell-free system (rabbit reticulocyte lysate) at 30° C. for 90 min. A 24 μL aliquot of this lysate containing either 1 μL of DMSO (for no-inhibitor control) or compound solution in DMSO (2 LM final concentration) was incubated for 30 minutes at room temperature followed by 1 hour in the presence of a kinase specific probe. A 80 μL of luciferin assay reagent was added to each solution and luminescence was immediately measured on a luminometer.
(§4) The % Inhibition and % Activity Remaining were calculated using the following equations:
(§5) % inhibition=(ALUcontrol−ALUsample)×100
(§6) % activity=100−% inhibition.

Assay [2] has as its target T2, AURKA (Homo sapiens, UniProt O14965).
T2 construct: made in house; host or cells: cell-free system (rabbit reticulocyte lysate)
Briefly: KinaseSeeker competition binding assay. Here is the method: as §1, §2, §3, §4, §5, §6

Assay [3] addresses T3, GSK3A (Homo sapiens, UniProt P49840).
T3 construct: made in house; host or cells: cell-free, rabbit reticulocyte lysate
Briefly: KinaseSeeker competition binding assay. Here is the method:
as §1, §2, §3, §4, §5, §6

For assay [4], the target named is T4, BTK (Homo sapiens, UniProt Q06187).
T4 construct: made in house; host or cells: cell-free system (rabbit reticulocyte lysate)
As to the kind of experiment: KinaseSeeker competition binding assay. As for the experimental part:
as §1, §2, §3, §4, §5, §6

Assay [5] concerns the target T5, MUSK (Homo sapiens, UniProt O15146).
T5 construct: made in house; host or cells: cell-free, rabbit reticulocyte lysate
As to the kind of experiment: KinaseSeeker competition binding assay. As for the experimental part: as §1, §2, §3, §4, §5, §6

In assay [6] the target is T6, CDK7 (Homo sapiens, UniProt P50613).
T6 construct: made in house; host or cells: cell-free system (rabbit reticulocyte lysate)
As to the kind of experiment: KinaseSeeker competition binding assay. Here is the method: as §1, §2, §3, §4, §5, §6

For assay [7], the target named is T7, IGF1R (Homo sapiens, UniProt P08069).
T7 construct: made in house; host or cells: cell-free, rabbit reticulocyte lysate
Briefly: KinaseSeeker competition binding assay. As for the experimental part:
as §1, §2, §3, §4, §5, §6

The target of assay [8] is T8, TEC (Homo sapiens, UniProt P42680).
T8 construct: made in house; host or cells: cell-free, rabbit reticulocyte lysate
As to the kind of experiment: KinaseSeeker competition binding assay. As for the experimental part:
as §1, §2, §3, §4, §5, §6

Assay [9] deals with T9, DDR1 (Homo sapiens, UniProt Q08345).
T9 construct: made in house; host or cells: cell-free system (rabbit reticulocyte lysate)
Briefly: KinaseSeeker competition binding assay. As for the experimental part:
as §1, §2, §3, §4, §5, §6

The target of assay [10] is T10, AXL (Homo sapiens, UniProt P30530).
T10 construct: made in house; host or cells: cell-free system (rabbit reticulocyte lysate)
As to the kind of experiment: KinaseSeeker competition binding assay. Here is the method: as §1, §2, §3, §4, §5, §6

The target of assay [11] is T11, TRKB (Homo sapiens, UniProt Q16620).
T11 construct: made in house; host or cells: cell-free, rabbit reticulocyte lysate
As to the kind of experiment: KinaseSeeker competition binding assay. Here is the method:
as §1, §2, §3, §4, §5, §6

Assay [12] addresses T12, MLK2 (Homo sapiens, UniProt Q02779).
T12 construct: made in house; host or cells: cell-free, rabbit reticulocyte lysate
Briefly: KinaseSeeker competition binding assay. As for the experimental part: as §1, §2, §3, §4, §5, §6

In assay [13] the target is T13, TESK1 (Homo sapiens, UniProt Q15569).
T13 construct: made in house; host or cells: cell-free, rabbit reticulocyte lysate
Briefly: KinaseSeeker competition binding assay. Here is the method:
as §1, §2, §3, §4, §5, §6

In assay [14] the target is T14, AKT1 (Homo sapiens, UniProt P31749).
T14 construct: made in house; host or cells: cell-free system (rabbit reticulocyte lysate)
As to the kind of experiment: KinaseSeeker competition binding assay. As for the experimental part:
as §1, §2, §3, §4, §5, §6

In assay [15] the test system is tested cancer cell lines. As to the kind of experiment: Cell growth inhibition by SRB method, tested cancer cell lines overall. Type of assay: cell-based, human. The note with it: data not provided. The source says: Six human cancer cell lines have been used to evaluate effects of the compounds on proliferation of cancer cells. These cell lines include HCC827-P (or HCC827 parent cells), human non-small lung cancer cells, Parent NSCLC HCC827 cell line (which harbors EGFR gene amplification, Exon 19 (E19) deletion, and Exon 21 mutation (Wang, Ramakrishnan et al. 2010), and is an EGFRi sensitive cell line (Kim, Kim et al. 2010)); HCC827-TR16 (Tarceva-resistant HCC727 cell line), HCC827-OR16 (AZD9291-resistant HCC727 cell line), LNCaP (human prostate cancer cells—a hormonal-therapy sensitive cell line (Wang, Liu et al. 1997)); 22RV1 (human prostate cancer cells—a hormonal-therapy resistant cell line (Sramkoski, Pretlow et al. 1999)); and ACHN (human renal adenocarcinoma cells (Park, Jung et al. 2003)). LNCaP cells and 22RV1 cells were purchased from the American Type Culture Collection (Rockville, Md.) and others were gifts of friends.
All cell lines were maintained in RPMI-1640 (GIBCO, Gaithersburg, Md.) with 10% heat-inactivated bovine serum (FBS) (Wang, Ossowski et al. 2004).
Sulforhodamine B (SRB) was used to estimate cell growth as described previously (Skehan, Storeng et al. 1990). Briefly, cells grown exponentially were aliquoted into 96-well plates at a density of 2,500 to 5,000 cells/200 μl per well in RPMI 1640 medium containing 10% FBS. After twenty-four hours, the cells were exposed to indicated concentrations of tested compounds for 72 hrs or otherwise as indicated. The cells were then fixed with 10% trichloride acetic acid for 2 h at 4° C. The 10% trichloride acetic acid was removed, and the dishes were washed 5 times with tape water, and air-dried. The fixed and dried cells were then stained with 0.4% SRB in 1% acetic acid for 25 min, and the dishes were washed 5 times with 1% acetic acid and air-dried overnight. 200 μl of 10 mM of Tris buffer (pH 10.0) were added, and the dishes were rotated to completely dissolve the color. Absorbance at 570 nm, with a reference wavelength 690 nm, was measured on a 96-well microplate reader (SPECTRO Star^Nano, BMG Labtech). Mean, standard deviation (SD) and the percent of growth inhibition at each concentration point of the treatment were calculated. The percent of growth inhibition as defined as (1−T/C)×100 where T is the mean of the absorbance at 570 nm from the treatment, and C from control (drug vehicle only). IC50 was calculated using Sigma-plot software by regression of growth-concentration curve from each drug treatment.
In general terms: The SRB assay estimates cell density from bound dye.

T2 sequence (O14965 whole entry): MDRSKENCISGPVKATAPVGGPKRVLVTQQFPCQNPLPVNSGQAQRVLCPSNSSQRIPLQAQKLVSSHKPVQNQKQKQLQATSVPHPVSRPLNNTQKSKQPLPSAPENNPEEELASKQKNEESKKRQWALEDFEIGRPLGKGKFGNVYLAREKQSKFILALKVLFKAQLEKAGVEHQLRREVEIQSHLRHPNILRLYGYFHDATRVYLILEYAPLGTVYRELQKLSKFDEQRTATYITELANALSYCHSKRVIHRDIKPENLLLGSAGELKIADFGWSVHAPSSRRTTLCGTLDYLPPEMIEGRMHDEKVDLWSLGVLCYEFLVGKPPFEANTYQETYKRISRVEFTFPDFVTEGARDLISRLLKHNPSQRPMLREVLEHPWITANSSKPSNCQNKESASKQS
T9 sequence (Q08345 19-913): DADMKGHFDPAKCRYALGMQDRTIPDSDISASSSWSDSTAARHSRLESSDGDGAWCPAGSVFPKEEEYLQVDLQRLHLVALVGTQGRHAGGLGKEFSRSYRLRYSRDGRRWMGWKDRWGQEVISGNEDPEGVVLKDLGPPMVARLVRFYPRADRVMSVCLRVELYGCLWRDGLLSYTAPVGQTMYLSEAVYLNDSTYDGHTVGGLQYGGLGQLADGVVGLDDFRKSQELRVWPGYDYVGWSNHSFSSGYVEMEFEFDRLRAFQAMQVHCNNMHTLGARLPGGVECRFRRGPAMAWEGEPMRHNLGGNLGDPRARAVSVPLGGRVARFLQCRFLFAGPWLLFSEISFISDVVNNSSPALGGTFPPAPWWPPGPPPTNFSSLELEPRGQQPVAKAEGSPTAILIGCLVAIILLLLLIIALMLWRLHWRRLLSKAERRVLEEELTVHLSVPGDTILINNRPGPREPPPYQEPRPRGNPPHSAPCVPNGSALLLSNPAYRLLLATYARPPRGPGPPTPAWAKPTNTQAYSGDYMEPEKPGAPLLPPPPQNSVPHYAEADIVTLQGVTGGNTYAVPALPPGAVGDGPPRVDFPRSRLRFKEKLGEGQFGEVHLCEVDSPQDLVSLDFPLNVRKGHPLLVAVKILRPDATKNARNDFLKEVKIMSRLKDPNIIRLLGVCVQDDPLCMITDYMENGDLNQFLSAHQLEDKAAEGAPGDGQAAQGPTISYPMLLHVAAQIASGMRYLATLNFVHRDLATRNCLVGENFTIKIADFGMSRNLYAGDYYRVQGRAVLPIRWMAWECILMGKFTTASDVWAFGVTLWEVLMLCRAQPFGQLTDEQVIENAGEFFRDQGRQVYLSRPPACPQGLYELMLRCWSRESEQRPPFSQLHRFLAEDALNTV
T8 sequence (P42680 whole entry): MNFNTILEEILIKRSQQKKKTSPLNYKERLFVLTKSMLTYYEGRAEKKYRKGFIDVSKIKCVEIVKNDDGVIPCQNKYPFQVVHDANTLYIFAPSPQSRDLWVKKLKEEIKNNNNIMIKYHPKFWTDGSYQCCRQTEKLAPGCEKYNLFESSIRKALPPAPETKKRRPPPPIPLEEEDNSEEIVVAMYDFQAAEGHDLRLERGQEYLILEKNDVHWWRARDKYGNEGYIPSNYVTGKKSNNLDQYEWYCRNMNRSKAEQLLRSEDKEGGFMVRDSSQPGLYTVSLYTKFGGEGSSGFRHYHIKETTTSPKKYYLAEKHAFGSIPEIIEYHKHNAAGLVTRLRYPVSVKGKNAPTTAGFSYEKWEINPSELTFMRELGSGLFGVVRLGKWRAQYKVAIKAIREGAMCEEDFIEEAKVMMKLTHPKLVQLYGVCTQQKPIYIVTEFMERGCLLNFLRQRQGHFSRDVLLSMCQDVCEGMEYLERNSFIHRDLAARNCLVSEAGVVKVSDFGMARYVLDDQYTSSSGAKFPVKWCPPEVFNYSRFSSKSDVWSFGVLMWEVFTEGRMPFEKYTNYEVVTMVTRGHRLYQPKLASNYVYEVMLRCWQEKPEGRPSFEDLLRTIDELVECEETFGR
T13 sequence (Q15569 whole entry): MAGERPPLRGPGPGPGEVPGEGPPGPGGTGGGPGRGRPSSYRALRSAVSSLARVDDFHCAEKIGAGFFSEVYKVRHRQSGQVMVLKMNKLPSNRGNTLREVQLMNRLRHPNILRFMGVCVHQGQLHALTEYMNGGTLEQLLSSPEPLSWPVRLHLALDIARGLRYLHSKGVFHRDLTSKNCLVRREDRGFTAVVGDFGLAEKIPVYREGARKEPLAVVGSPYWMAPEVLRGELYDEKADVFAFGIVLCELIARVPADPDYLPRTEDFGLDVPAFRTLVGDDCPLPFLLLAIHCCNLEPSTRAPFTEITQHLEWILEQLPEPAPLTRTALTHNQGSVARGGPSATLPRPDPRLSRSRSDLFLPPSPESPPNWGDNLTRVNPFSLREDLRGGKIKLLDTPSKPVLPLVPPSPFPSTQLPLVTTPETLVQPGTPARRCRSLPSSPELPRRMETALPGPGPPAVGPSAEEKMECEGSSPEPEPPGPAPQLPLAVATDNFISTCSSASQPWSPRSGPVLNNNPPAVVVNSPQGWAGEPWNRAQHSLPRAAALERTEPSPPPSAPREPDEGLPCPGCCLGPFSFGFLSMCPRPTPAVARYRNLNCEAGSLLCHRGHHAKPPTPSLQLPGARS
T10 sequence (P30530 26-894): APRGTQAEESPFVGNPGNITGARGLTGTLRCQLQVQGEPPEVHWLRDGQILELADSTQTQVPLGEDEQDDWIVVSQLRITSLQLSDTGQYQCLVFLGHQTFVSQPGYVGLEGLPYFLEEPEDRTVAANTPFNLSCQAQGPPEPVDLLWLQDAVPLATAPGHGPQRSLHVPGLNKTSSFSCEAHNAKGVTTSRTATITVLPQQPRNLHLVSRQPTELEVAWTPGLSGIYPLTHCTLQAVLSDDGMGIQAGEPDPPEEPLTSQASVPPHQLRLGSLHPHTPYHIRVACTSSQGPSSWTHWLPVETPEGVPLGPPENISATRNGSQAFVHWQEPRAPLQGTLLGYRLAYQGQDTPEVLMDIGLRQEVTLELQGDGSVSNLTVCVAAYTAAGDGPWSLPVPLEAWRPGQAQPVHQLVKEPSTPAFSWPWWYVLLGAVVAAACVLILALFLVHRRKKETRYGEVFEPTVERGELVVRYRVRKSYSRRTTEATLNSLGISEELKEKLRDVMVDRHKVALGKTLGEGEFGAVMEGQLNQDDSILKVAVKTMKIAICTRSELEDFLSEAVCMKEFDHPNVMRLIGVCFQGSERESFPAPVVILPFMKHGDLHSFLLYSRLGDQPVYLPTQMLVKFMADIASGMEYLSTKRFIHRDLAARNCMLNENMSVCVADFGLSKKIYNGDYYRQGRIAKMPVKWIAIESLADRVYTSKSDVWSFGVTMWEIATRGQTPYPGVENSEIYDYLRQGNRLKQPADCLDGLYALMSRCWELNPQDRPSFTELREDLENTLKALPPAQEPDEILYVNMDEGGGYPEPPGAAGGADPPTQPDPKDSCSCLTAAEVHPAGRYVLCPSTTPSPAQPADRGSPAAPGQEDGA
T4 sequence (Q06187 whole entry): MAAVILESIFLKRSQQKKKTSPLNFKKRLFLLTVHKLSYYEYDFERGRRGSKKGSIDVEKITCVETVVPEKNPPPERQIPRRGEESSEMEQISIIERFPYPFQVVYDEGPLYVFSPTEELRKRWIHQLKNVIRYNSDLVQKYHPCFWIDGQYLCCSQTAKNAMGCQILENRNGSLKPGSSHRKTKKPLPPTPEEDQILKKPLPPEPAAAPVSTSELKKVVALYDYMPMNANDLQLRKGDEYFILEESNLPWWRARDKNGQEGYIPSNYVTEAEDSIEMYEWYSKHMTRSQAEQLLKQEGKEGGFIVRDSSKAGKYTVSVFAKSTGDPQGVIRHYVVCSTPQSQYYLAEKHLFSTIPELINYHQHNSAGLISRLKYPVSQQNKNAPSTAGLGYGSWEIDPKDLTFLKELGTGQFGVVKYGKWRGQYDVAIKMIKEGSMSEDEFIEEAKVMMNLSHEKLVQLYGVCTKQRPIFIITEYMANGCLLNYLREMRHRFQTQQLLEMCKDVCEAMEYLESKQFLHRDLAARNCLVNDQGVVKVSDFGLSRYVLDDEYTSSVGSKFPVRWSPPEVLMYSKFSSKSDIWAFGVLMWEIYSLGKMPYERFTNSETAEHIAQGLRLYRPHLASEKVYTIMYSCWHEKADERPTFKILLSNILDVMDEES
T12 sequence (Q02779 whole entry): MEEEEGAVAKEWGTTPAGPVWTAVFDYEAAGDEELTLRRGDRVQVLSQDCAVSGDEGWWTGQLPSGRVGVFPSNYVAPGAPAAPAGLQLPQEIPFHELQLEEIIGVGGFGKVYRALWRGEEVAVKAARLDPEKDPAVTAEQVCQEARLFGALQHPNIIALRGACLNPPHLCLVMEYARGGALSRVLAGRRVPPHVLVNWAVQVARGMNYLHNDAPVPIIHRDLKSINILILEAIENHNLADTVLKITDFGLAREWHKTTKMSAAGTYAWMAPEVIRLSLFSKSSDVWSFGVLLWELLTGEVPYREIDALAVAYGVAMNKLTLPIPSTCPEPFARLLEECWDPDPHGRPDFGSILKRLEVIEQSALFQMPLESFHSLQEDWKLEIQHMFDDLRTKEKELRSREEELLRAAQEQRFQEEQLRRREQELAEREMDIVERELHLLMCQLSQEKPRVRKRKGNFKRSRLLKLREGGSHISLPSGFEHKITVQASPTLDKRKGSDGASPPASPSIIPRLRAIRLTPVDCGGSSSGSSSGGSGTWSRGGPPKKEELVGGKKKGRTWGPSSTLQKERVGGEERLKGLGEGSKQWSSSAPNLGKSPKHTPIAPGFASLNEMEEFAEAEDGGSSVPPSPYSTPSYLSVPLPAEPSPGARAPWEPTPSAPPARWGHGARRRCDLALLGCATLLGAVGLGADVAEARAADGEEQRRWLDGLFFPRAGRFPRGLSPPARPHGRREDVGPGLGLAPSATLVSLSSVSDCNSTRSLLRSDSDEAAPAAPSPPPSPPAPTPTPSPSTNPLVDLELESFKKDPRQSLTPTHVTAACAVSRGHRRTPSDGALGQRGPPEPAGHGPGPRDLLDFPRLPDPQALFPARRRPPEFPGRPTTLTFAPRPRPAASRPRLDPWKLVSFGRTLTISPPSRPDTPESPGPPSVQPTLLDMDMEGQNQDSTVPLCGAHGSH

As for `C#Cc1cccc(Nc2ncnc3cc(OCCOC)c(NC(=O)c4ccc(F)c([N+](=O)[O-])c4)cc23)c1` [Reno647, 4-Fluoro-N-[4-(3-ethynyl-phenylamino)-7-(2-methoxy-ethoxy)-quinazolin-6-yl]-3-nitro-benzamide], the remaining binding at 2 µM in assay [1] turned out to be 100%; in assay [2], 100%; in [3], 100%; in assay [4], 93.1%; in assay [5], 91.8%; in assay [6] it was 95.5%. Besides, the remaining binding at 2 µM in [7] is 95.5%; in assay [8], 97.4%; in assay [9], ~42%; in assay [10] it was 73.2%; in [11], 88.4%; in assay [12], 99.7%. The values for the remaining binding at 2 µM in assay [13] and in assay [14] were 100% and 96.8%, respectively. For the same compound, the “activities against all tested cancer cells lines compared with NK-2206 and MLN8237” value in assay [15] is “better activities”.
